Data as given in patent US10047093B2, “Substituted imidazo[1,2-B]pyridazines as protein kinase inhibitors” (Tolero Pharmaceuticals, Inc., priority 2011, dated 2018).

Tests used:
Pim-1 kinase = Pim-1 kinase (Homo sapiens (Human), UniProt P11309); assay: Pim-1 kinase inhibition assay (Promega Kinase-Glo); assay type: biochemical; conditions: read-out: IC50 on Pim1
Excerpt: One illustrative manner in which Pim-1 kinase activity can be determined is by quantifying the amount of ATP remaining in solution after an in vitro Pim-1 kinase reaction. The Kinase-Glo Assay Kit (Promega, Inc., Madison, Wis.) allows this. The amount of ATP remaining in the solution after the kinase reaction serves as a substrate for the luciferase to catalyze luciferin to oxyluciferin plus one photon of light. Thus, the luminescent signal read by the Luminoskan Ascent Instrument (Thermo Electron Corp., Milford, Mass.) correlates with the amount of ATP present after the kinase reaction and inversely correlates with the amount of kinase activity. […] These assays are set up in duplicate 50 ul volumes in white, flat bottom 96 well plates. […] This solution is incubated at 30 degrees Celsius at 360 rpm for two hours. Following the incubation, 50 ul of Kinase-Glo reagent is added to each well, including all positive and negative control wells, and incubated at room temperature for 15 minutes. […] The IC50 values can then be calculated for each inhibitor tested.

PC-3 xenograft tumors = assay: PC-3 established mouse xenograft; assay type: in vivo
Excerpt: (§1) Male and female Nu/Nu mice were purchased from Harlan Sprague Dawley (Indianapolis, Ind.). Female Nu/Nu mice were used for all xenograft evaluations with the exception of the PC-3 xenografts where male Nu/Nu mice were used. Cell lines were expanded in vitro in complete media, and if adherent were harvested by trypsin-EDTA, centrifuged and resuspended in PBS 1:1 with Matrigel (BD Bioscienes). Cells were inoculated subcutaneously in the right hind flank of mice. […] Tumor volumes and body weights were determined twice a week, and tumor weights were measured at the completion of the translational xenograft studies.

[1] = system: ML-2 cells (wild-type FLT3); assay: ML-2 mouse xenograft; assay type: in vivo; conditions: ML-2 (wild-type FLT3) xenograft
Excerpt: (§2) Male and female Nu/Nu mice were purchased from Harlan Sprague Dawley (Indianapolis, Ind.). Female Nu/Nu mice were used for all xenograft evaluations with the exception of the PC-3 xenografts where male Nu/Nu mice were used. Cell lines were expanded in vitro in complete media, and if adherent were harvested by trypsin-EDTA, centrifuged and resuspended in PBS 1:1 with Matrigel (BD Bioscienes). Cells were inoculated subcutaneously in the right hind flank of mice. When tumors reached 100-200 mm^3 by caliper measurement, mice were randomized and dosing of SGI-9481 or vehicle control began and continued every day for 5 days (QDx5) with 2 days off for 18-21 days. Tumor volumes and body weights were determined twice a week, and tumor weights were measured at the completion of the translational xenograft studies.

UM-UC-3 xenograft tumors = assay: UM-UC-3 established mouse xenograft; assay type: in vivo
Excerpt: as §1

MV-4-11 (FLT3-ITD) = assay: MV-4-11 mouse xenograft; assay type: in vivo; conditions: MV-4-11 (FLT3-ITD) established xenografts
Excerpt: as §2

UM-UC-3 = assay: In vitro viability/proliferation assay, UM-UC-3; assay type: cell-based; conditions: Homo sapiens, UMUC3; bladder line UM-UC-3
Method: (§3) Adherent or suspension cancer cell lines were seeded at 2000-5000 cells/well in a 96-well plate, or 1000-2000 cells/well in a 384-well plate. Suspension cells were treated with drug the same day as seeding, while adherent cells were incubated overnight at 37° C. in 5% CO2 prior to drug treatment. All cells were treated for 72 hours, then lysed with ATPlite (Perkin Elmer) and measured on an Envision microplate reader. IC50 values were determined using GraphPad Prism software.
(§4) Over 35 cell lines were tested, and the most sensitive cell lines from various indications were selected and verified by multiple EC50 determinations (FIG. 6). […] Anti-proliferative activity using PIM-2 shRNA against FLT3-ITD driven leukemia lines has been observed (Adam (2006) Cancer Res 66:3828-35 data not shown).

hematological cell lines = assay: In vitro viability assay, panel of hematological cell lines; assay type: cell-based; conditions: most sensitive hematological cell lines
Method: as §3, §4

[2] = 125 mg/kg, less than with 200 mg/kg

Pim-1 kinase, sequence (P11309 whole entry): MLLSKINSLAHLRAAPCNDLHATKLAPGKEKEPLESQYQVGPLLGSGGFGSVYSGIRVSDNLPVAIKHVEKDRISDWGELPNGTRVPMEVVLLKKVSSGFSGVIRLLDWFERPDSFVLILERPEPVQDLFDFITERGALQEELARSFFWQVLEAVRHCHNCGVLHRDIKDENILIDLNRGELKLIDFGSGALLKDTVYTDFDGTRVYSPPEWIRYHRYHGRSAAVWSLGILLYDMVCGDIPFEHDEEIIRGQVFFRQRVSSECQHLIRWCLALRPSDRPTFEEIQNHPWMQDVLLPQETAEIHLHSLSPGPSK

Compound: 4-(((3-(3-(Trifluoromethyl)phenyl)-[1,2,4]triazolo[4,3-a]pyridin-6-yl)amino)methyl)tetrahydro-2H-thiopyran 1,1-dioxide [Compound 8-111]
- IC50 (Pim-1 kinase): > 30000 nM

Compound: CC(C)(O)[C@H]1CC[C@H](Nc2ccc3ncc(-c4cccc(C(F)(F)F)c4)n3n2)CC1 [Compound 8-31]
- tumor growth inhibition (PC-3 xenograft tumors; [2]): significant tumor growth inhibition
- body weight and gross adverse toxicity (PC-3 xenograft tumors; oral dosing of 200 mg/kg): no significant changes in body weight or gross adverse toxicity
- tumor growth measured by volume (caliper) and by final tumor weight (PC-3 xenograft tumors; oral dosing of 200 mg/kg): significantly reduced
- tumor growth [1]: significant tumor growth inhibition
- tumor growth inhibition (UM-UC-3 xenograft tumors; [2]): significant tumor growth inhibition
- body weight and gross adverse toxicity (UM-UC-3 xenograft tumors; oral dosing of 200 mg/kg): no significant changes in body weight or gross adverse toxicity
- tumor growth measured by volume (caliper) and by final tumor weight (UM-UC-3 xenograft tumors; oral dosing of 200 mg/kg): significantly reduced
- tumor growth of established xenografts (MV-4-11 (FLT3-ITD)): induced regressions
- EC50 (UM-UC-3): 1000 to 2000 nM
- EC50 (hematological cell lines): 1000 to 2000 nM

Compound: C[C@]1(O)CC[C@H](Nc2ccc3nnc(-c4cccc(OC(F)(F)F)c4)n3c2)CC1 [Compound 8-100, 1-Methyl-4-((3-(3-(trifluoromethoxy)phenyl)-[1,2,4]triazolo[4,3-a]pyridin-6-yl)amino)-trans-cyclohexanol]
- IC50 (Pim-1 kinase): 1640 nM
